Measurements as given in patent US20260027116A1, “Methods of Treating Chronic Graft-Versus-Host Disease Following Allogeneic Hematopoietic Stem Cell Transplantation” (Kadmon Corporation, LLC, priority 2022, published 2026).

Key:
lung function = test: Example 1: percent predicted FEV1 change from baseline; assay type: in vivo, human
Description: Change From Baseline in Percent Predicted Forced Expiratory Volume in 1 Second (FEV1) at Each Specified Time Points. FEV1 was the volume of air exhaled from the lungs in the first second of a forced expiration as measured by spirometer. Baseline value was defined as valid and last non-missing value obtained within 28 days prior to participant receiving first study medication. EOT visit was performed within 3 days after the participant's last dose of study drug. […] Analysis was performed on mITT population. Here, ‘number analyzed’=participants with available data for each specified category. Here, ‘O’ in the number analyzed field signifies that none of the participants were available for the analysis at the specified time points.

cGVHD symptom burden = test: Example 2: 7-day LSS summary score; assay type: in vivo, human; conditions: for Clinically significant improvement from baseline (LSS), Overall: decrease ≥ 7 points in LSS score
Description: All responses were assessed by the study site investigators.

For `CC(C)NC(=O)COc1cccc(-c2nc(Nc3ccc4[nH]ncc4c3)c3ccccc3n2)c1` [Belumosudil, 2-{3-[4-(1H-indazol-5-ylamino)-2-quinazolinyl]phenoxy}-N-(propan-2-yl) acetamide], which “Change From Baseline in Percent Predicted Forced Expiratory Volume in 1 Second (FEV1), Mean (Standard Deviation)” value (lung function; Cohort 2: 200 mg BID, Cycle 13, Day 1) is on record?
Its value is −2.5 (14.7) percent predicted FEV1.

And the “Change From Baseline in Percent Predicted Forced Expiratory Volume in 1 Second (FEV1), Mean (Standard Deviation)” value (lung function; Cohort 2: 200 mg BID, Cycle 14, Day 1)?
The value was 0.0 (—) percent predicted FEV1.

And the “Change From Baseline in Percent Predicted Forced Expiratory Volume in 1 Second (FEV1), Mean (Standard Deviation)” value (lung function; Cohort 2: 200 mg BID, Cycle 15, Day 1)?
The value was −2.3 (5.1) percent predicted FEV1.

And the “Change From Baseline in Percent Predicted Forced Expiratory Volume in 1 Second (FEV1), Mean (Standard Deviation)” value (lung function; Cohort 2: 200 mg BID, Cycle 16, Day 1)?
Its value is −8.0 (15.6) percent predicted FEV1.

What about the “Change From Baseline in Percent Predicted Forced Expiratory Volume in 1 Second (FEV1), Mean (Standard Deviation)” value (lung function; Cohort 2: 200 mg BID, Cycle 17, Day 1) of the same compound?
Its value is −6.0 (7.2) percent predicted FEV1.

What about the “Change From Baseline in Percent Predicted Forced Expiratory Volume in 1 Second (FEV1), Mean (Standard Deviation)” value (lung function; Cohort 2: 200 mg BID, Cycle 18, Day 1) of the same compound?
The value was −7.5 (10.6) percent predicted FEV1.

What about the “Change From Baseline in Percent Predicted Forced Expiratory Volume in 1 Second (FEV1), Mean (Standard Deviation)” value (lung function; Cohort 2: 200 mg BID, Cycle 19, Day 1) of the same compound?
The value was −6.3 (5.5) percent predicted FEV1.

What about the “Change From Baseline in Percent Predicted Forced Expiratory Volume in 1 Second (FEV1), Mean (Standard Deviation)” value (lung function; Cohort 2: 200 mg BID, Cycle 25, Day 1) of the same compound?
Its value is −12.5 (3.5) percent predicted FEV1.

What about the “Change From Baseline in Percent Predicted Forced Expiratory Volume in 1 Second (FEV1), Mean (Standard Deviation)” value (lung function; Cohort 2: 200 mg BID, Cycle 27, Day 1) of the same compound?
The value was −17.0 (9.9) percent predicted FEV1.

And the “Change From Baseline in Percent Predicted Forced Expiratory Volume in 1 Second (FEV1), Mean (Standard Deviation)” value (lung function; Cohort 2: 200 mg BID, Cycle 29, Day 1)?
The value was 17.0 (11.3) percent predicted FEV1.

What about the “Change From Baseline in Percent Predicted Forced Expiratory Volume in 1 Second (FEV1), Mean (Standard Deviation)” value (lung function; Cohort 2: 200 mg BID, Cycle 31, Day 1) of the same compound?
The value was −19.5 (10.6) percent predicted FEV1.

And the “Change From Baseline in Percent Predicted Forced Expiratory Volume in 1 Second (FEV1), Mean (Standard Deviation)” value (lung function; Cohort 2: 200 mg BID, Cycle 33, Day 1)?
Its value is −1.0 (33.9) percent predicted FEV1.

And the “Change From Baseline in Percent Predicted Forced Expiratory Volume in 1 Second (FEV1), Mean (Standard Deviation)” value (lung function; Cohort 2: 200 mg BID, Cycle 35, Day 1)?
Its value is −2.5 (30.4) percent predicted FEV1.

And the “Change From Baseline in Percent Predicted Forced Expiratory Volume in 1 Second (FEV1), Mean (Standard Deviation)” value (lung function; Cohort 2: 200 mg BID, Cycle 37, Day 1)?
The value was −22.0 (—) percent predicted FEV1.

And the “Change From Baseline in Percent Predicted Forced Expiratory Volume in 1 Second (FEV1), Mean (Standard Deviation)” value (lung function; Cohort 2: 200 mg BID, Cycle 39, Day 1)?
The value was −23.0 (11.3) percent predicted FEV1.

And the “Change From Baseline in Percent Predicted Forced Expiratory Volume in 1 Second (FEV1), Mean (Standard Deviation)” value (lung function; Cohort 2: 200 mg BID, Cycle 43, Day 1)?
Its value is −21.0 (—) percent predicted FEV1.

And the “Change From Baseline in Percent Predicted Forced Expiratory Volume in 1 Second (FEV1), Mean (Standard Deviation)” value (lung function; Cohort 2: 200 mg BID, EOT)?
Its value is −10.1 (15.7) percent predicted FEV1.

What about the “Change From Baseline in Percent Predicted Forced Expiratory Volume in 1 Second (FEV1), Mean (Standard Deviation)” value (lung function; Cohort 3: 400 mg QD, Cycle 2, Day 1) of the same compound?
Its value is −4.8 (6.7) percent predicted FEV1.

And the “Change From Baseline in Percent Predicted Forced Expiratory Volume in 1 Second (FEV1), Mean (Standard Deviation)” value (lung function; Cohort 3: 400 mg QD, Cycle 3, Day 1)?
The value was −1.5 (6.2) percent predicted FEV1.

And the “Change From Baseline in Percent Predicted Forced Expiratory Volume in 1 Second (FEV1), Mean (Standard Deviation)” value (lung function; Cohort 3: 400 mg QD, Cycle 4, Day 1)?
Its value is −0.2 (8.4) percent predicted FEV1.

What about the “Change From Baseline in Percent Predicted Forced Expiratory Volume in 1 Second (FEV1), Mean (Standard Deviation)” value (lung function; Cohort 3: 400 mg QD, Cycle 5, Day 1) of the same compound?
The value was 0.5 (5.9) percent predicted FEV1.

What about the “Change From Baseline in Percent Predicted Forced Expiratory Volume in 1 Second (FEV1), Mean (Standard Deviation)” value (lung function; Cohort 3: 400 mg QD, Cycle 6, Day 1) of the same compound?
Its value is −0.9 (6.4) percent predicted FEV1.

And the “Change From Baseline in Percent Predicted Forced Expiratory Volume in 1 Second (FEV1), Mean (Standard Deviation)” value (lung function; Cohort 3: 400 mg QD, Cycle 7, Day 1)?
The value was −0.9 (11.8) percent predicted FEV1.

What about the “Change From Baseline in Percent Predicted Forced Expiratory Volume in 1 Second (FEV1), Mean (Standard Deviation)” value (lung function; Cohort 3: 400 mg QD, Cycle 8, Day 1) of the same compound?
Its value is −1.1 (8.0) percent predicted FEV1.

What about the “Change From Baseline in Percent Predicted Forced Expiratory Volume in 1 Second (FEV1), Mean (Standard Deviation)” value (lung function; Cohort 3: 400 mg QD, Cycle 9, Day 1) of the same compound?
Its value is −3.0 (11.8) percent predicted FEV1.

And the “Change From Baseline in Percent Predicted Forced Expiratory Volume in 1 Second (FEV1), Mean (Standard Deviation)” value (lung function; Cohort 3: 400 mg QD, Cycle 10, Day 1)?
The value was 2.7 (3.9) percent predicted FEV1.

And the “Change From Baseline in Percent Predicted Forced Expiratory Volume in 1 Second (FEV1), Mean (Standard Deviation)” value (lung function; Cohort 3: 400 mg QD, Cycle 11, Day 1)?
The value was −4.4 (15.8) percent predicted FEV1.

And the “Change From Baseline in Percent Predicted Forced Expiratory Volume in 1 Second (FEV1), Mean (Standard Deviation)” value (lung function; Cohort 3: 400 mg QD, Cycle 12, Day 1)?
The value was 0.3 (3.6) percent predicted FEV1.

And the “Change From Baseline in Percent Predicted Forced Expiratory Volume in 1 Second (FEV1), Mean (Standard Deviation)” value (lung function; Cohort 3: 400 mg QD, Cycle 13, Day 1)?
Its value is −3.5 (13.2) percent predicted FEV1.

And the “Change From Baseline in Percent Predicted Forced Expiratory Volume in 1 Second (FEV1), Mean (Standard Deviation)” value (lung function; Cohort 3: 400 mg QD, Cycle 14, Day 1)?
Its value is −5.1 (9.1) percent predicted FEV1.

What about the “Change From Baseline in Percent Predicted Forced Expiratory Volume in 1 Second (FEV1), Mean (Standard Deviation)” value (lung function; Cohort 3: 400 mg QD, Cycle 15, Day 1) of the same compound?
Its value is −6.1 (12.6) percent predicted FEV1.

And the “Change From Baseline in Percent Predicted Forced Expiratory Volume in 1 Second (FEV1), Mean (Standard Deviation)” value (lung function; Cohort 3: 400 mg QD, Cycle 16, Day 1)?
Its value is −4.5 (7.3) percent predicted FEV1.

What about the “Change From Baseline in Percent Predicted Forced Expiratory Volume in 1 Second (FEV1), Mean (Standard Deviation)” value (lung function; Cohort 3: 400 mg QD, Cycle 17, Day 1) of the same compound?
The value was −7.9 (15.5) percent predicted FEV1.

And the “Change From Baseline in Percent Predicted Forced Expiratory Volume in 1 Second (FEV1), Mean (Standard Deviation)” value (lung function; Cohort 3: 400 mg QD, Cycle 18, Day 1)?
The value was 4.0 (6.0) percent predicted FEV1.

What about the “Change From Baseline in Percent Predicted Forced Expiratory Volume in 1 Second (FEV1), Mean (Standard Deviation)” value (lung function; Cohort 3: 400 mg QD, Cycle 19, Day 1) of the same compound?
The value was 0.5 (8.5) percent predicted FEV1.

What about the “Change From Baseline in Percent Predicted Forced Expiratory Volume in 1 Second (FEV1), Mean (Standard Deviation)” value (lung function; Cohort 3: 400 mg QD, Cycle 25, Day 1) of the same compound?
Its value is −5.0 (11.4) percent predicted FEV1.

What about the “Change From Baseline in Percent Predicted Forced Expiratory Volume in 1 Second (FEV1), Mean (Standard Deviation)” value (lung function; Cohort 3: 400 mg QD, Cycle 27, Day 1) of the same compound?
Its value is −10.0 (17.0) percent predicted FEV1.

And the “Change From Baseline in Percent Predicted Forced Expiratory Volume in 1 Second (FEV1), Mean (Standard Deviation)” value (lung function; Cohort 3: 400 mg QD, Cycle 29, Day 1)?
The value was 0.0 (1.4) percent predicted FEV1.

What about the “Change From Baseline in Percent Predicted Forced Expiratory Volume in 1 Second (FEV1), Mean (Standard Deviation)” value (lung function; Cohort 3: 400 mg QD, Cycle 31, Day 1) of the same compound?
The value was −4.0 (—) percent predicted FEV1.

What about the “Change From Baseline in Percent Predicted Forced Expiratory Volume in 1 Second (FEV1), Mean (Standard Deviation)” value (lung function; Cohort 3: 400 mg QD, Cycle 35, Day 1) of the same compound?
The value was −4.0 (—) percent predicted FEV1.

What about the “Change From Baseline in Percent Predicted Forced Expiratory Volume in 1 Second (FEV1), Mean (Standard Deviation)” value (lung function; Cohort 3: 400 mg QD, Cycle 36, Day 1) of the same compound?
The value was 5.0 (—) percent predicted FEV1.

What about the “Change From Baseline in Percent Predicted Forced Expiratory Volume in 1 Second (FEV1), Mean (Standard Deviation)” value (lung function; Cohort 3: 400 mg QD, Cycle 39, Day 1) of the same compound?
Its value is −5.0 (—) percent predicted FEV1.

And the “Change From Baseline in Percent Predicted Forced Expiratory Volume in 1 Second (FEV1), Mean (Standard Deviation)” value (lung function; Cohort 3: 400 mg QD, Cycle 43, Day 1)?
The value was −7.0 (—) percent predicted FEV1.

What about the “Change From Baseline in Percent Predicted Forced Expiratory Volume in 1 Second (FEV1), Mean (Standard Deviation)” value (lung function; Cohort 3: 400 mg QD, Cycle 47, Day 1) of the same compound?
The value was −5.0 (—) percent predicted FEV1.

What about the “Change From Baseline in Percent Predicted Forced Expiratory Volume in 1 Second (FEV1), Mean (Standard Deviation)” value (lung function; Cohort 3: 400 mg QD, Cycle 49, Day 1) of the same compound?
The value was −2.0 (—) percent predicted FEV1.

And the “Change From Baseline in Percent Predicted Forced Expiratory Volume in 1 Second (FEV1), Mean (Standard Deviation)” value (lung function; Cohort 3: 400 mg QD, EOT)?
The value was −7.4 (14.9) percent predicted FEV1.

What about the “clinically meaningful LSS improvement, nonresponders” value (cGVHD symptom burden; 200 mg daily) of the same compound?
Its value is 29%.

And the “clinically meaningful LSS improvement, responders” value (cGVHD symptom burden; 200 mg daily)?
The value was 69%.

What about the “clinically meaningful improvement (≥7-point) in 7-day LSS summary score, mITT” value (cGVHD symptom burden; 200 mg daily) of the same compound?
The value was 59%.

What about the “clinically meaningful LSS improvement, nonresponders” value (cGVHD symptom burden; 200 mg twice daily) of the same compound?
Its value is 33%.

And the “clinically meaningful LSS improvement, responders” value (cGVHD symptom burden; 200 mg twice daily)?
Its value is 71%.

What about the “clinically meaningful improvement (≥7-point) in 7-day LSS summary score, mITT” value (cGVHD symptom burden; 200 mg twice daily) of the same compound?
Its value is 62%.

And the “Clinically significant improvement from baseline (LSS), Overall” value (from here on “Clinically significant improvement”) (cGVHD symptom burden; 200 mg daily (n = 66))?
The value was 39 (59) n (%).

And the “Clinically significant improvement” value (cGVHD symptom burden; 200 mg twice daily (n = 66))?
Its value is 41 (62) n (%).

And the “Clinically significant improvement” value (cGVHD symptom burden; Total (N = 132))?
The value was 80 (61) n (%).
